In ChEMBL document CHEMBL3421583, “Withanolides with antibacterial activity from Nicandra john-tyleriana” (J Nat Prod, 2015):
Calls of active or inactive are those of the source.

Experiments:
Assay type in all cases: functional, organism-based
Bacillus cereus [1] = test: Antibacterial activity against Bacillus cereus at 2000 ppm after 24 to 48 hrs by disk diffusion method
Bacillus cereus [2] = test: Antibacterial activity against Bacillus cereus at 2000 ppm after 24 hrs by bioautographic TLC assay
Bacillus cereus [3] = test: Bactericidal activity against Bacillus cereus BAC1 at 1000 ppm after 24 hrs
Bacillus cereus [4] = test: Bacteriostatic activity against Bacillus cereus BAC1 at 750 ppm after 24 hrs

Measured: Activity

CC1=C(CO)C(=O)O[C@@H]([C@@H](C)[C@H]2C(=O)C[C@H]3[C@@H]4C[C@H]5O[C@]56CC=CC(=O)[C@]6(C)[C@H]4CC[C@]23C)C1
active: all assays above

C[C@]12CC[C@H]3[C@@H](C[C@H]4O[C@]45CC=CC(=O)[C@]35C)[C@@H]1C[C@@H](O)[C@@H]2[C@@H]1C[C@]2(C)C[C@H]1OC(=O)[C@]2(C)O
active: Bacillus cereus [1] | Bacillus cereus [2]
